Laboratory results published in US5380715A, “Ap4 A as a hypotensive agent” (Fujirebio Inc., priority 1992, dated 1995).

Key:
[1] = tested on: dogs; assay: Gradual hypotension during anesthesia in dogs (hemodynamics, blood gas); format: in vivo, mongrel dogs; conditions: dog; for Arterial Carbonate Tension PaCO2 / Arterial Oxygen Tension PaO2 / Arterial pH (pH-a) / Body Temperature BT / Cardiac Output C.O. / Central Venous Pressure CVP / Dose / Heart Rate H.R. / Hematocrit Value Hct / Mean Blood Pressure B.P. (mean) / Mean Blood Pressure B.P. (Δ%) / Mixed Venous Carbonate Tension PvCO2 / Mixed Venous Oxygen Tension PvO2 / Mixed Venous pH (pH-v) / Pulmonary Artery Pressure PAM / Pulmonary Capillary Wedge Pressure PCWP: enflurane
Procedure: Dogs were anesthetized with enflurane. […] The mean blood pressure (B.P.), heart rate (H.R.), cardiac output (C.O.), arterial oxygen tension (PaO2), mixed venos oxygen tension (PvO2), arterial carbonate tension (PaCO2), mixed venous carbonate tension (PvCO2), arterial pH (pH-a), mixed venous pH (pH-v), and base excess thereof were measured.
Mongrel dogs weighing 9 to 17 kg were anesthetized with intravenous thiopental 20 mg/kg by bolus injection, followed by 1% enflurane in 40% O2 /N2 after endotracheal intubation. […] Bilateral femoral arteries were catheterized, one for the determination of blood pressure and the other for blood sampling.
Access to the bilateral femoral veins was obtained for the administration of Ap4A, PG E1 or nitroglycerin and for the insertion of a ballon-tipped thermodilution catheter. The electrocardiogram was continuously monitored. The control values were obtained before the administration of each of the above-mentioned three agents. Each agent was administered using a syringe pump at titrated doses to produce gradual 20%, 40%, 50%, 60%, and 80% decreases in the mean arterial pressure (MAP) from the control value.
After the target blood pressure and stable hemodynamic conditions were reached, the following parameters were measured: heart rate (HR), mean pulmonary artery pressure (PAM), pulmonary capillary wedge pressure (PCWP), and central venous pressure (CVP). Cardiac output (CO) was determined by the thermodilution method. Gas analyses of arterial and mixed venous bloods were performed using a blood gas analyzer.

[2] = tested on: rats; assay: Gradual hypotension during anesthesia in rats; format: in vivo, male SD rats; conditions: rat, enflurane
Procedure: Male SD rats (Charles River Japan Inc.) were anesthetized with intravenous thiopental 50 mg/kg as a bolus, followed by 1% enflurane in air.
A femoral artery was catheterized to monitor the blood pressure and heart rate, while a femoral vein was catheterized for the administration of each of the test drugs.
(§1) The control values were obtained before the administration of each test drug. Each test drug was then administered using a syringe in a dose-dependent manner for 15 minutes. The percentage (%) of the decrease of blood pressure was determined when stabilized. Changes in heart rate (H.R.) at the administration of each test drug were measured. Furthermore,the recovery of mean blood pressure after intravenous infusion of each test drug was also determined from the decrease in heart rate and the blood pressure at a maximum dose of each test drug.

[3] = tested on: rats; assay: Recovery of blood pressure after gradual hypotension in rats; format: in vivo, male SD rats; conditions: rat
Procedure: FIG. 1 is a graph showing the recovery of the blood pressure of rats anesthetized with enflurane with time, when each of Ap4A ( ), PG E1 ( ) and nitroglycerin ( ) was used as a test drug to attain gradual hypotension, with the blood pressure before the administration of each test drug being set 100% for reference.
The recovery of blood pressure after gradual hypotension by use of each of Ap4A, PG E1 and nitroglycerin was also tested.
as §1
In a test similar to the above, each of Ap4A, PG E1, and nitroglycerin was administered to rats, so that about 65% fall in blood pressure, about 55% fall in blood pressure, and about 35% fall in blood pressure were stepwise attained. With respect to each agent, the recovery of blood pressure was tested.

In the case of CCCCC[C@H](O)/C=C/[C@H]1[C@H](O)CC(=O)[C@@H]1CCCCCCC(=O)O [PG E1, prostaglandin E1, reference compound], the “Arterial Carbonate Tension PaCO2” value ([1]; at -20% blood pressure) is reported as 37.3 ± 1.4 mmHg, the “Arterial Oxygen Tension PaO2” value ([1]; at -20% blood pressure) is reported as 251.6 ± 8.3 mmHg and the “Arterial pH (pH-a)” value ([1]; at -20% blood pressure) is reported as 7.323 ± 0.015. For the same compound, the “Body Temperature BT” value ([1]; at -20% blood pressure) was 37.4 ± 0.6 °C, the “Cardiac Output C.O.” value ([1]; at -20% blood pressure) was 1.47 ± 0.18 L/min and the “Central Venous Pressure CVP” value ([1]; at -20% blood pressure) was 3.27 ± 0.59 mmHg. The Dose ([1]; at -20% blood pressure) was 1.66 ± 0.48 µg/kg/min, the “Heart Rate H.R.” value ([1]; at -20% blood pressure) was 167.8 ± 8.6 beats/min and the “Hematocrit Value Hct” value ([1]; at -20% blood pressure) was 41.5 ± 2.9%. For the same compound, the “Mean Blood Pressure B.P. (mean)” value ([1]; at -20% blood pressure) was 107.2 ± 5.3, the “Mean Blood Pressure B.P. (Δ%)” value ([1]; at -20% blood pressure) was -20.3 ± 0.4% and the “Mixed Venous Carbonate Tension PvCO2” value ([1]; at -20% blood pressure) was 41.3 ± 1.3 mmHg. The “Mixed Venous Oxygen Tension PvO2” value ([1]; at -20% blood pressure) was 51.0 ± 1.0 mmHg, the “Mixed Venous pH (pH-v)” value ([1]; at -20% blood pressure) was 7.303 ± 0.009 and the “Pulmonary Artery Pressure PAM” value ([1]; at -20% blood pressure) was 16.0 ± 3.8 mmHg. For the same compound, the “Pulmonary Capillary Wedge Pressure PCWP” value ([1]; at -20% blood pressure) was 9.0 ± 3.0 mmHg, the “Arterial Carbonate Tension PaCO2” value ([1]; at -40% blood pressure) was 36.0 ± 0.7 mmHg and the “Arterial Oxygen Tension PaO2” value ([1]; at -40% blood pressure) was 249.3 ± 6.0 mmHg. For the same compound, the “Arterial pH (pH-a)” value ([1]; at -40% blood pressure) was 7.334 ± 0.012, the “Body Temperature BT” value ([1]; at -40% blood pressure) was 37.3 ± 0.6 °C and the “Cardiac Output C.O.” value ([1]; at -40% blood pressure) was 1.20 ± 0.14 L/min. For the same compound, the “Central Venous Pressure CVP” value ([1]; at -40% blood pressure) was 3.12 ± 0.47 mmHg, the Dose ([1]; at -40% blood pressure) was 3.61 ± 1.01 µg/kg/min and the “Heart Rate H.R.” value ([1]; at -40% blood pressure) was 155.5 ± 9.1 beats/min. The “Hematocrit Value Hct” value ([1]; at -40% blood pressure) was 39.8 ± 3.3%, the “Mean Blood Pressure B.P. (mean)” value ([1]; at -40% blood pressure) was 79.8 ± 4.6 and the “Mean Blood Pressure B.P. (Δ%)” value ([1]; at -40% blood pressure) was -40.7 ± 0.5%. For the same compound, the “Mixed Venous Carbonate Tension PvCO2” value ([1]; at -40% blood pressure) was 39.7 ± 1.0 mmHg, the “Mixed Venous Oxygen Tension PvO2” value ([1]; at -40% blood pressure) was 50.0 ± 1.9 mmHg and the “Mixed Venous pH (pH-v)” value ([1]; at -40% blood pressure) was 7.286 ± 0.012. For the same compound, the “Pulmonary Artery Pressure PAM” value ([1]; at -40% blood pressure) was 13.3 ± 3.0 mmHg, the “Pulmonary Capillary Wedge Pressure PCWP” value ([1]; at -40% blood pressure) was 6.8 ± 2.1 mmHg and the “Arterial Carbonate Tension PaCO2” value ([1]; at -50% blood pressure) was 36.9 ± 1.0 mmHg. The “Arterial Oxygen Tension PaO2” value ([1]; at -50% blood pressure) was 251.7 ± 9.3 mmHg, the “Arterial pH (pH-a)” value ([1]; at -50% blood pressure) was 7.303 ± 0.017 and the “Body Temperature BT” value ([1]; at -50% blood pressure) was 37.2 ± 0.6 °C. For the same compound, the “Cardiac Output C.O.” value ([1]; at -50% blood pressure) was 1.17 ± 0.11 L/min, the “Central Venous Pressure CVP” value ([1]; at -50% blood pressure) was 3.48 ± 0.56 mmHg and the Dose ([1]; at -50% blood pressure) was 4.77 ± 1.14 µg/kg/min. For the same compound, the “Heart Rate H.R.” value ([1]; at -50% blood pressure) was 143.3 ± 7.3 beats/min, the “Hematocrit Value Hct” value ([1]; at -50% blood pressure) was 40.0 ± 3.5% and the “Mean Blood Pressure B.P. (mean)” value ([1]; at -50% blood pressure) was 67.5 ± 3.4. The “Mean Blood Pressure B.P. (Δ%)” value ([1]; at -50% blood pressure) was -49.8 ± 0.2%, the “Mixed Venous Carbonate Tension PvCO2” value ([1]; at -50% blood pressure) was 41.6 ± 0.6 mmHg and the “Mixed Venous Oxygen Tension PvO2” value ([1]; at -50% blood pressure) was 53.3 ± 4.5 mmHg. For the same compound, the “Mixed Venous pH (pH-v)” value ([1]; at -50% blood pressure) was 7.278 ± 0.015, the “Pulmonary Artery Pressure PAM” value ([1]; at -50% blood pressure) was 12.8 ± 2.7 mmHg and the “Pulmonary Capillary Wedge Pressure PCWP” value ([1]; at -50% blood pressure) was 6.7 ± 2.0 mmHg. For the same compound, the “Arterial Carbonate Tension PaCO2” value ([1]; at -60% blood pressure) was 36.8 ± 1.0 mmHg, the “Arterial Oxygen Tension PaO2” value ([1]; at -60% blood pressure) was 253.2 ± 11.92 mmHg and the “Arterial pH (pH-a)” value ([1]; at -60% blood pressure) was 7.308 ± 0.022. The “Body Temperature BT” value ([1]; at -60% blood pressure) was 36.9 ± 0.7 °C, the “Cardiac Output C.O.” value ([1]; at -60% blood pressure) was 1.04 ± 0.10 L/min and the “Central Venous Pressure CVP” value ([1]; at -60% blood pressure) was 3.70 ± 0.76 mmHg. For the same compound, the Dose ([1]; at -60% blood pressure) was 5.91 ± 1.49 µg/kg/min, the “Heart Rate H.R.” value ([1]; at -60% blood pressure) was 134.6 ± 7.2 beats/min and the “Hematocrit Value Hct” value ([1]; at -60% blood pressure) was 38.4 ± 4.5%. For the same compound, the “Mean Blood Pressure B.P. (mean)” value ([1]; at -60% blood pressure) was 56.0 ± 4.3, the “Mean Blood Pressure B.P. (Δ%)” value ([1]; at -60% blood pressure) was -58.1 ± 1.3% and the “Mixed Venous Carbonate Tension PvCO2” value ([1]; at -60% blood pressure) was 40.6 ± 1.2 mmHg. For the same compound, the “Mixed Venous Oxygen Tension PvO2” value ([1]; at -60% blood pressure) was 49.9 ± 3.1 mmHg, the “Mixed Venous pH (pH-v)” value ([1]; at -60% blood pressure) was 7.275 ± 0.016 and the “Pulmonary Artery Pressure PAM” value ([1]; at -60% blood pressure) was 12.4 ± 3.4 mmHg. The “Pulmonary Capillary Wedge Pressure PCWP” value ([1]; at -60% blood pressure) was 6.2 ± 2.2 mmHg, the “effect on arterial pH / venous pH” value ([1]; result in words) was “significantly decrease arterial pH or have a tendency to decrease arterial pH” and the “effect on carbonate tension” value ([1]; result in words) was “almost no effects on the oxygen tension and carbonate tension”. The “effect on heart rate” value ([1]; result in words) was “tendency to increase the heart rate when a 20% or less fall in blood pressure is attained”, the “effect on oxygen tension” value ([1]; result in words) was “almost no effects on the oxygen tension and carbonate tension” and the “Blood Pressure (Δ%)” value ([2]; infusion 0.03 μg/kg/min) was 0%. The “Heart Rate (Δ%)” value ([2]; infusion 0.03 μg/kg/min) was 0%, the “Blood Pressure (Δ%)” value ([2]; infusion 0.1 μg/kg/min) was 0% and the “Heart Rate (Δ%)” value ([2]; infusion 0.1 μg/kg/min) was 0%. For the same compound, the “Blood Pressure (Δ%)” value ([2]; infusion 0.3 μg/kg/min) was -1.9 ± 1.9%, the “Heart Rate (Δ%)” value ([2]; infusion 0.3 μg/kg/min) was -0.3 ± 0.3% and the “Blood Pressure (Δ%)” value ([2]; infusion 1 μg/kg/min) was -9.8 ± 3.1%. For the same compound, the “Heart Rate (Δ%)” value ([2]; infusion 1 μg/kg/min) was -1.2 ± 1.4%, the “Blood Pressure (Δ%)” value ([2]; infusion 3 μg/kg/min) was -26.2 ± 4.0% and the “Heart Rate (Δ%)” value ([2]; infusion 3 μg/kg/min) was -8.0 ± 3.4%. For the same compound, the “Blood Pressure (Δ%)” value ([2]; infusion 10 μg/kg/min) was -48.0 ± 2.7%, the “Heart Rate (Δ%)” value ([2]; infusion 10 μg/kg/min) was -13.6 ± 2.9% and the “recovered blood pressure (before administration = 100%)” value ([3]; 15 minutes) was “about 85%”. For the same compound, the “fall in blood pressure attained before recovery” value ([3]; stepwise) was “about 55%” and the “rapidness of the recovery of blood pressure” value ([3]; order in words) was “Ap4A>PG E1 >nitroglycerin”.
